Source: publication PMC4938538, “Inhibition of Pig Phosphoenolpyruvate Carboxykinase Isoenzymes by 3-Mercaptopicolinic Acid and Novel Inhibitors” (PLoS ONE, 2016)
Residue numbers refer to the chain shown, from its start. Values joined by “and” are separate entries in the source; they are usually repeats but may differ in a detail not shown here. Identical values can stand only once.

Legend:
wild type PEPCK-C = target: T1, wild type PEPCK-C (Sus scrofa, UniProt A0A4X1UM84); test: IC50 determination, PEPCK-C activity in the direction of OAA synthesis (coupled spectrophotometric assay with malate dehydrogenase); format: biochemical, pig; details: saturating substrate concentration
T1 construct: made in house; host or cells: Escherichia coli BL21 (DE3)
T1 sequence (A0A4X1UM84 1-622): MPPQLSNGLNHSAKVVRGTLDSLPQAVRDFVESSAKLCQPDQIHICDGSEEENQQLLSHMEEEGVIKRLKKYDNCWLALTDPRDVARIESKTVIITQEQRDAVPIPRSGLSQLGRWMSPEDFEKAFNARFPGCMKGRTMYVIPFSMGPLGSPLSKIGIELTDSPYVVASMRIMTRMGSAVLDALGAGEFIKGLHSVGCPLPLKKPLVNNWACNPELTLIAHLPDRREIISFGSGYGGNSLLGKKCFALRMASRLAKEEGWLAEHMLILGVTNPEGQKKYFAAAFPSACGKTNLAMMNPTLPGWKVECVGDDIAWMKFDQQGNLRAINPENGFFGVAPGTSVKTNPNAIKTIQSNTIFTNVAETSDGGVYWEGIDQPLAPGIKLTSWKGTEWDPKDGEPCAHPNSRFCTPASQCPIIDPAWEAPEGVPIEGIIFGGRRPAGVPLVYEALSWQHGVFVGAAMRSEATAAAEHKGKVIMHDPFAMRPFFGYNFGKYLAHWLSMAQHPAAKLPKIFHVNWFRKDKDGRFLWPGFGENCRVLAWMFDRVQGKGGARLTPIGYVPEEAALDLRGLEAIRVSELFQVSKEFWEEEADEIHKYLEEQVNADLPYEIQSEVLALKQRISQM
Description: (§1) PEPCK-C activity was measured in an UNICAM 500 spectrometer (UNICAM Analytical Systems, UK) with coupled spectrophotometric assays using pyruvate kinase and lactate dehydrogenase as auxiliary enzymes in PEP synthesis reaction and malate dehydrogenase in the reverse reaction.
Variable inhibitor concentrations of 0–200 μM were also used. Assays were initiated by PEPCK-C addition. Rates were calculated by measuring the decreasing slope of absorbance at 340 nm after subtracting the rate of spontaneous NADH oxidation.
3-MP inhibition assays were fitted in double reciprocal plots. To describe the mixed non-competitive inhibition, the double reciprocal equation can be written as: 1/v = Km/Vmax (1+[I]/Ki) 1/[S]+1/Vmax (1+[I]/αKi) (2)

PEPCK-C 139Leu = target: T2, PEPCK-C 139Leu (Sus scrofa, UniProt A0A4X1UM84, M139L); test: Near-UV circular dichroism spectra; format: binding, pig; details: 50 μM compound, 20 μM PEPCK-C (compound 1 also 150 μM, data not shown)
T2 construct: made in house; host or cells: Escherichia coli BL21 (DE3)
T2 sequence (A0A4X1UM84 1-622 M139L): T1 sequence (A0A4X1UM84 1-622) with M139L
Description: (§2) PEPCK-C was diluted to 20 μM in a 20 mM HEPES pH 7.4 buffer, containing 1 mM TCEP. 50 μM 3-MP, compound 1 or compound 2 were added to the PEPCK-C solution. Readings were performed at 25°C in a 0.1 cm cuvette from 320 to 250 nm in a Chirascan CD-spectrophotometer (Applied Photophysics, UK). CD spectra were calculated after subtracting the blank which contained all the components except PEPCK-C.

PEPCK-C 139Met [1] = target: T3, PEPCK-C 139Met (Sus scrofa, UniProt A0A4X1UM84); test: Near-UV circular dichroism spectra; format: binding, pig; design: His-tag (cleaved yes); made in house; host or cells: Escherichia coli BL21 (DE3); details: 50 μM compound, 20 μM PEPCK-C (compound 1 also 150 μM, data not shown)
T3 sequence (A0A4X1UM84 1-622): T1 sequence (A0A4X1UM84 1-622)
Description: as §2

[2] = Solubility / precipitation in the enzymatic assay; format: physicochemical
Description: Assays to calculate IC50 values were performed in the direction of OAA synthesis in 1 mL of a 100 mM HEPES buffer pH 7.4, containing 10 mM DTT, 0.2 mM MnCl2, 2 mM MgCl2, 2 mM GDP, 0.2 mM NADH, 2 mM PEP, 100 mM KHCO3 and 4 units of malate dehydrogenase. Variable inhibitor concentrations of 0–200 μM were also used. Assays were initiated by PEPCK-C addition. Rates were calculated by measuring the decreasing slope of absorbance at 340 nm after subtracting the rate of spontaneous NADH oxidation.

PEPCK-C 139Met [3] = target: T3, PEPCK-C 139Met; test: Compound 1 and 2 inhibition assays in PEP synthesis direction (Vmax and Km); format: biochemical, pig; design: made in house; host or cells: Escherichia coli BL21 (DE3); details: for Vmax (GTP) in presence of inhibitor / Vmax (OAA) in presence of inhibitor: 50 μM inhibitor; for Vmax (OAA) in presence of inhibitor: OAA variable substrate
Description: as §1
3-MP inhibitions assays in OAA synthesis direction were carried out as described before with the exception of the variable substrate (50–600 μM for PEP and 10–100 μM for GDP) and 3-MP concentration (10–100 μM). Assays in the direction of PEP synthesis were performed in 1 mL of a 100 mM HEPES buffer pH 7.4, containing 10 mM DTT, 0.2 mM MnCl2, 2 mM MgCl2, 1 mM GTP or 400 μM OAA, 1 mM ADP, 0.2 mM NADH, PEPCK-C and 5 units of each pyruvate kinase and lactate dehydrogenase. Reactions were initiated by addition of OAA. Variable substrates were 5–50 μM OAA or 25–500 μM GTP and 3-MP concentrations were between 10–400 μM. Rates were calculated by measuring the decreasing slope at 340 nm of absorbance after subtracting the rate of spontaneous NADH oxidation in the case of OAA synthesis or the rate of the blank which contained all the components of the mix but PEPCK-C in the case of PEP synthesis.
Compound 1 and 2 inhibitions assays were performed in PEP synthesis direction as described in 3-MP inhibition assays. Variable substrates were 10–100 μM OAA or 25–500 μM GTP, inhibitors concentrations were around IC50 value (100 μM compound 1 or 50 μM compound 2) and 20 units of each pyruvate kinase and lactate dehydrogenase were also added.
Data from compound 1 and 2 inhibition assays were represented in double reciprocal plots to calculate Vmax and Km values using GraphPad Prism 3.03 software.

Row | Structure (SMILES) | IC50 (wild type PEPCK-C) | Change of near-UV CD spectrum of the enzyme (PEPCK-C 139Leu) | Change of near-UV CD spectrum of the enzyme (PEPCK-C 139Met [1]) | Solubility (in words) [2] | Rise of Km value for GTP in presence of the inhibitor (PEPCK-C 139Met [3]; GTP variable substrate) | Vmax (GTP) in presence of inhibitor (PEPCK-C 139Met [3]; GTP variable substrate) | Vmax (OAA) in presence of inhibitor (PEPCK-C 139Met [3])
1 | O=C(O)c1ncccc1S [3-MP, 3-mercaptopicolinic acid] | 65 ± 6 µM | modify the CD spectra of both isoenzymes | modify the CD spectra of both isoenzymes |  |  |  | 
2 | Cn1nc(-c2ccc(C=NNC(=O)c3ccc(Cl)cc3Cl)s2)cc1C(F)(F)F [compound 2, N'1-({5-[1-methyl-5-(trifluoromethyl)-1H-pyrazol-3-yl]-2-thienyl}methylidene)-2,4-dichlorobenzene-1-carbohydrazide] | 30 ± 2 µM | more markedly compound 2 modify the CD spectra of both isoenzymes | more markedly compound 2 modify the CD spectra of both isoenzymes | poor solubility | threefold | 5.9 ± 2.3 µmol/min/mg | 4.6 µmol/min/mg and 4.6 ± 1.4 µmol/min/mg
3 | CC(=NNC(=S)NC1CCCCC1)c1sc(-c2cccs2)nc1C [compound 1, N1-cyclohexyl-2-{1-[4-methyl-2-(2-thienyl)-1,3-thiazol-5-yl]ethylidene}hydrazine-1-carbothiamide] | 134 ± 4 µM | no clear differences in the enzyme CD spectra | no clear differences in the enzyme CD spectra | poor solubility |  | 7.8 µmol/min/mg and 7.8 ± 0.5 µmol/min/mg | 6.7 µmol/min/mg and 6.7 ± 1.4 µmol/min/mg
